# According to US20090142431A1 (U.S. Nutraceuticals, LLC d/b/a Valensa International, priority 2005, published 2009):
# Legend:
# poxvirus vGK5 = format: cell-based
# [1] = compared with alpha-tocopherol; cited from earlier work
smiles,measurement,setting,value
"CC1=C(/C=C/C(C)=C/C=C/C(C)=C/C=C/C=C(C)/C=C/C=C(C)/C=C/C2=C(C)C(=O)C(O)CC2(C)C)C(C)(C)CC(O)C1=O (stereo not drawn) [astaxanthin, 3,3′-dihydroxy-β,β-carotene-4,4′-dione]",IC50,poxvirus vGK5,less than 125 ppm
same,ability to quench singlet oxygen relative to alpha-tocopherol,[1],over five hundred times
